From patent US8865763B2, “Methods and compositions for altering cell function” (Alltech, Inc., priority 2005, dated 2014) come the findings set out here.

In data set [1] the test system is Glutathione Peroxidase 1. Put plainly: Microarray gene expression, mouse intestine: Glutathione Peroxidase 1. The following applies: diet 1 ppm Se, vs selenium deficient, all p < 0.01. It counts as in vivo. The source says: (§1) Animal Care. Male C57BL/6J mice were housed singly and started on the experimental diets described below immediately after weaning (21 days of age). The mice were maintained in the Shared Aging Rodent Facility at the William S. Middleton Memorial Veterans Administration Medical Center (Madison, Wis.). Temperature and humidity were maintained at constant levels. Room light was controlled to provide 12-hr cycles of light and dark.
(§2) Experimental diets were created by Harlan Teklad (Madison, Wis.). Selenium content of the diets was determined by Covance Inc. (Madison, Wis.). Five (5) animals were included in each of the following treatment groups: a diet deficient in selenium (SD); a diet supplemented with selenomethionine (SM, obtained from Sigma, St. Louis, Mo.) such that the final selenium content of the diet was one (1) part per million; a diet supplemented with sodium selenite (SS, Sigma) such that the final concentration of selenium in this diet was one (1) part per million; or a diet supplemented with the yeast selenium SEL-PLEX (SP, Alltech, Lexington, Ky.), such that the final concentration of selenium in this diet was one (1) part per million. SEL-PLEX. […]
(§3) Tissue sample preparation and microarray analysis. […] For intestinal expression studies, the intestine was flushed twice with saline solution and small intestine was measured and divided in three equal segments. […]

Data set [2] relates to Glutathione Peroxidase 3. Put plainly: Microarray gene expression, mouse intestine: Glutathione Peroxidase 3. The following applies: diet 1 ppm Se, vs selenium deficient, all p < 0.01. It counts as in vivo.
Text: as §1, §2, §3

Data set [3] concerns Growth arrest and DNA-damage-inducible 45 gamma (Gadd45g). Nature of the data set: Microarray gene expression, mouse intestine: Gadd45g. It counts as in vivo. The following applies: diet 1 ppm Se, vs selenium deficient, negative = down, listed as SS.
Text: as §1
Experimental diets were created by Harlan Teklad (Madison, Wis.). Selenium content of the diets was determined by Covance Inc. (Madison, Wis.). Five (5) animals were included in each of the following treatment groups: a diet deficient in selenium (SD); a diet supplemented with selenomethionine (SM, obtained from Sigma, St. Louis, Mo.) such that the final selenium content of the diet was one (1) part per million; a diet supplemented with sodium selenite (SS, Sigma) such that the final concentration of selenium in this diet was one (1) part per million; or a diet supplemented with the yeast selenium SEL-PLEX (SP, Alltech, Lexington, Ky.), such that the final concentration of selenium in this diet was one (1) part per million. SEL-PLEX. Mice were provided with water and their respective diet ad libitum for 100 days. Diets were stored at the dark at 4° C. and fresh diet was added to feeder twice weekly.
Tissue sample preparation and microarray analysis. Mice were killed at 100 days of age by cervical dislocation. For intestinal expression studies, the intestine was flushed twice with saline solution and small intestine was measured and divided in three equal segments. A 3-cm region of the middle segment of the small intestine corresponding to the jejunum (˜300 mg of tissue) was cut and rinsed again with physiological saline to completely remove contents, flash frozen in liquid nitrogen and stored at −80° C. For brain (e.g., cerebral cortex) studies, the cerebral cortex was separated from the surrounding brain tissue and was flash frozen in liquid nitrogen and stored at −80° C. […]

Data set [4] concerns Glutathione S-transferase, alpha 3 (Gsta3). Nature of the data set: Microarray gene expression, mouse intestine: Gsta3. It counts as in vivo. The settings on record: diet 1 ppm Se, vs Se-deficient diets, negative = down.
Text: as §1, §2, §3

For data set [5], the system named is Glutathione S-transferase, mu2 (Gstm2). Put plainly: Microarray gene expression, mouse intestine: Gstm2. It counts as in vivo. The following applies: diet 1 ppm Se, vs Se-deficient diets, negative = down.
Text: as §1, §2, §3

The subject of data set [6] is Complement component 1, q subcomponent binding protein, C1qbp. Nature of the data set: Microarray gene expression, mouse cerebral cortex: C1qbp. The settings on record: diet 1 ppm Se, vs selenium deficient, * p<0.01. It counts as in vivo.
Text: as §1, §2, §3

Data set [7] deals with Complement component 1, q subcomponent, alpha polypeptide, C1qa. Nature of the data set: Microarray gene expression, mouse cerebral cortex: C1qa. It counts as in vivo. The following applies: diet 1 ppm Se, vs selenium deficient, * p<0.01.
Text: as §1, §2, §3

Data set [8] deals with Complement component 1, q subcomponent, gamma polypeptide, C1qg. Nature of the data set: Microarray gene expression, mouse cerebral cortex: C1qg. It counts as in vivo. The settings on record: diet 1 ppm Se, vs selenium deficient, * p<0.01.
Text: as §1, §2, §3

Data set [9] has as its system Complement component 1, r subcomponent, C1r. Nature of the data set: Microarray gene expression, mouse cerebral cortex: C1r. It counts as in vivo. The settings on record: diet 1 ppm Se, vs selenium deficient, * p<0.01.
Text: as §1, §2, §3

Data set [10] deals with Cathepsin B. Nature of the data set: Microarray gene expression, mouse cerebral cortex: Cathepsin B. It counts as in vivo. The settings on record: diet 1 ppm Se, vs Se-deficient mice, * significant.
Text: as §1, §2, §3

The subject of data set [11] is Cathepsin D. Nature of the data set: Microarray gene expression, mouse cerebral cortex: Cathepsin D. It counts as in vivo. The following applies: diet 1 ppm Se, vs Se-deficient mice, * significant.
Text: as §1, §2, §3

Data set [12] deals with Cathepsin Z. Nature of the data set: Microarray gene expression, mouse cerebral cortex: Cathepsin Z. It counts as in vivo. The settings on record: diet 1 ppm Se, vs Se-deficient mice, * significant.
Text: as §1, §2, §3

For data set [13], the system named is Cathepsin O. Nature of the data set: Microarray gene expression, mouse cerebral cortex: Cathepsin O. It counts as in vivo. The settings on record: diet 1 ppm Se, vs Se-deficient mice, * significant.
Text: as §1, §2, §3

The test system of data set [14] is Nicastrin. Put plainly: Microarray gene expression, mouse cerebral cortex: Nicastrin. It counts as in vivo. The following applies: diet 1 ppm Se, vs Se-deficient animals, * P < 0.01.
Text: as §1, §2, §3

Data set [15] concerns Presenilin 1. Nature of the data set: Microarray gene expression, mouse cerebral cortex: Presenilin 1. The settings on record: diet 1 ppm Se, vs Se-deficient animals, * P < 0.01. It counts as in vivo.
Text: as §1, §2, §3

Data set [16] has as its system Amyloid beta (A4) precursor protein-binding, family A, member 1(Apba1). Nature of the data set: Microarray gene expression, mouse cerebral cortex: Apba1. It counts as in vivo. The following applies: diet 1 ppm Se, vs Se-deficient animals, * P < 0.01.
Text: as §1, §2, §3

Data set [17] has as its system Gadd45b. Put plainly: Microarray gene expression, mouse cerebral cortex: Gadd45b. It counts as in vivo. The settings on record: diet 1 ppm Se, vs Se-deficient animals, * significant.
Text: as §1, §2, §3

Data set [18] has as its system Gadd45g1p (Growth arrest and DNA-damage inducible 45 gamma interacting protein). Nature of the data set: Microarray gene expression, mouse cerebral cortex: Gadd45g1p. It counts as in vivo. The settings on record: diet 1 ppm Se, vs Se-deficient animals, * significant.
Text: as §1, §2, §3

For data set [19], the system named is Gst mu 7 (Gstm7). Nature of the data set: Microarray gene expression, mouse cerebral cortex: Gstm7. It counts as in vivo. The following applies: diet 1 ppm Se, vs Se-deficient animals, * significant.
Text: as §1, §2, §3

Data set [20] is described as follows: Body weight of mice on selenium diets. It counts as in vivo, mouse. The settings on record: diet 1 ppm Se vs selenium deficient diet; FIG. 1.
Text: as §1
Experimental diets were created by Harlan Teklad (Madison, Wis.). Selenium content of the diets was determined by Covance Inc. (Madison, Wis.). […]
Thus, it was an object of the present invention to determine whether compositions and methods of the present invention could alter the expression levels (e.g., mRNA levels) of various genes. One group of genes analyzed were genes classically associated with selenium. As described above, the expression levels of genes were analyzed between mice with and without dietary selenium, or, between mice fed different sources of selenium) (See, e.g., Table 1, below).

Consider `O=[Se](O)O` [Sod-sel, sodium selenite], for which the “fold change in expression of Glutathione Peroxidase 1” value in data set [1] was 4.1 fold. Also, the “fold change in expression of Glutathione Peroxidase 3” value in data set [2] is recorded as 3.5 fold. Further, in data set [3], the “FC (fold change) expression of Gadd45g” value is −2.0 fold. The “FC (fold change) expression of Gsta3” value in [4] is reported as −2.3 fold. Further, the “FC (fold change) expression of Gstm2” value in [5] is −2.1 fold. In data set [6], the “FC (fold change) expression of C1qbp” value is 1.11 fold. For the same molecule, the “FC (fold change) expression of C1qa” value in data set [7] was −1.18 fold. In [8], the “FC (fold change) expression of C1qg” value is −1.07 fold. In [9], the “FC (fold change) expression of C1r” value is −1.29 fold. The “FC (fold change) expression of Cathepsin B” value in data set [10] is −1.13* fold. In addition, the “FC (fold change) expression of Cathepsin D” value in [11] is −1.24* fold. Moreover, in data set [12], the “FC (fold change) expression of Cathepsin Z” value was −1.30* fold. Further, the “FC (fold change) expression of Cathepsin O” value in data set [13] was −1.18 fold. Also, in [14], the “FC (fold change) expression of Nicastrin” value is reported as −1.67* fold. The “FC (fold change) expression of Presenilin 1” value in [15] is recorded as −1.11 fold. In data set [16], the “FC (fold change) expression of Apba1” value is on record as −1.41 fold. Further, the “FC (fold change) expression of Gadd45b in brain” value in [17] was −1.39* fold. The “FC (fold change) expression of Gadd45g1p in brain” value in [18] is recorded as −1.12 fold. In addition, in data set [19], the “FC (fold change) expression of Gstm7” value is −1.25* fold. Moreover, the “body weights of mice” value in [20] was “No significant differences”.
